One may read the Ki as a measure of affinity in units of concentration, obtained from inhibition or displacement.

Experimental findings from US10160762B2, “6-alkyl dihydropyrazolopyrimidinone compounds as PDE2 inhibitors” (Merck Sharp & Dohme Corp., priority 2015, dated 2018) are described below.

The target of the test is T1, human PDE2A1 (Homo sapiens, UniProt O00408).
T1 construct: GST; purchased BPS Bioscience (San Diego, Calif.) 60020; host or cells: insect cells
The test can be described thus: IMAP FP PDE assay, human PDE2A1. Particulars: Lab B; read-out: Human PDE2 Ki (nM) Lab B. It is filed as biochemical. How it is done: Selectivity for PDE2, as compared to other PDE families, was assessed using the IMAP® technology. Human PDE10A2 enzyme was prepared from cytosolic fractions of transiently transfected HEK cells. All other PDE's were GST Tag human enzyme expressed in insect cells and were obtained from BPS Bioscience (San Diego, Calif.): PDE1A (Cat#60010), human PDE2A1 (Cat#60020), PDE3A (Cat#60030), PDE4A1A (Cat#60040), PDE5A1 (Cat#60050), PDE6C (Cat#60060), PDE7A (Cat#60070), PDE8A1 (Cat#60080), PDE9A2 (Cat#60090), PDE11A4 (Cat#60110).
Assays for PDE 1 through 11 were performed in parallel at room temperature in 384-well microtiter plates with an incubation volume of 20.2 μL. Solutions of test compounds were prepared in DMSO and serially diluted with DMSO to yield 30 μL of each of ten solutions differing by 3-fold in concentration, at 32 serial dilutions per plate. […] A Labcyte POD 810 (Labcyte, Sunnyvale, Calif.) was used to dispense 200 nL from each well of the titration plate to make eleven copies of the assay plate for each titration, one copy for each PDE enzyme. A solution of each enzyme (dilution from aliquots, sufficient to produce 20% substrate conversion) and a separate solution of FAM-labeled cAMP or FAM-labeled cGMP from Molecular Devices (Sunnyvale, Calif., product # R7506 or cGMP#R7508), at a final concentration of 50 nM were made in the assay buffer (10 mM Tris HCl, pH 7.2, 10 mM MgCl2, 0.05% NaN3 0.01% Tween-20, and 1 mM DTT). Note that the substrate for PDE2 is 50 nM FAM cAMP containing 1000 nM of cGMP. The enzyme and the substrate were then added to the assay plates in two consecutive additions of 10 μL and then shaken to mix. The reaction was allowed to proceed at room temperature for 60 minutes. A binding solution was then made from the kit components, comprised of 80% Solution A, 20% Solution B and binding reagent at a volume of 1/600 the total binding solution. The enzymatic reaction was stopped by addition of 60 μL of the binding solution to each well of the assay plate. The plates were sealed and shaken for 10 seconds. The plates were incubated at room temperature for one hour, then the parallel and perpendicular fluorescence was measured using a Tecan Genios Pro plate reader (Tecan, Switzerland). The apparent inhibition constants for the compounds against all 11 PDE's was determined from the parallel and perpendicular fluorescent readings as described for PDE10 FP assay using the following apparent KM values for each enzyme and substrate combination: PDE1A (FAM cGMP) 70 nM, human PDE2A1 (FAM cAMP) 10,000 nM, PDE3A (FAM cAMP) 50 nM, PDE4A1A (FAM cAMP) 1500 nM, PDE5A1 (FAM cGMP) 400 nM, PDE6C (FAM cGMP) 700 nM, PDE7A (FAM cAMP) 150 nM, PDE8A1 (FAM cAMP) 50 nM, PDE9A2 (FAM cGMP) 60 nM, PDE10A2 (FAM cAMP) 150 nM, PDE11A4 (FAM cAMP) 1000 nM. The intrinsic PDE2 inhibitory activity of a compound which may be used in accordance with the present invention may be determined by these assays.

T1 sequence (O00408 1-920 isoform O00408-2): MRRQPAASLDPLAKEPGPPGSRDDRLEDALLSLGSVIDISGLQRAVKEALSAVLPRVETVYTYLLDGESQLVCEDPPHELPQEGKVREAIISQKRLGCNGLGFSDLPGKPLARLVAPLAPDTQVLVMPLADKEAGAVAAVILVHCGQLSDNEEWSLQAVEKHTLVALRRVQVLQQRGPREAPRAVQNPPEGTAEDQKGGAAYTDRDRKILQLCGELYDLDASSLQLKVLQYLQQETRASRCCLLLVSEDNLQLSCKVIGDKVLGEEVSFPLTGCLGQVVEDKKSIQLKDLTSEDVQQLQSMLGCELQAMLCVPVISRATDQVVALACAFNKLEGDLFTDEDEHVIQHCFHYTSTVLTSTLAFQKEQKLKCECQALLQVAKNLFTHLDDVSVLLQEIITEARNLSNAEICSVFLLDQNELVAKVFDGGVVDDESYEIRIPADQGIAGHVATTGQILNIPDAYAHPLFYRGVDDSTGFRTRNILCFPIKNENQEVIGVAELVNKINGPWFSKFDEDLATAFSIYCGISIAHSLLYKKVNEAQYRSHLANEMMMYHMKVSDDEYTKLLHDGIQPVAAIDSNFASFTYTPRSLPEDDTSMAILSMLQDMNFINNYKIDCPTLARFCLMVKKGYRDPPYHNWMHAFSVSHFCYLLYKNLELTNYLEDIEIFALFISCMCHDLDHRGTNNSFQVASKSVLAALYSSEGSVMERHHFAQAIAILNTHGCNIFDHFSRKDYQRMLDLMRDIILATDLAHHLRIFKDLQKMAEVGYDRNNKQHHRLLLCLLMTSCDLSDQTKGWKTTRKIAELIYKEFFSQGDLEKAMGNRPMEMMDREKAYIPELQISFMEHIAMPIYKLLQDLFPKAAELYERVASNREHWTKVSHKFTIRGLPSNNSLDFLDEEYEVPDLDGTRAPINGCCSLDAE

As to `Cc1nc2c(c(Br)nn2C(C)c2ccc(C(F)(F)F)cc2)c(=O)[nH]1` (single isomer, unassigned) [Example 324], the Ki amounted to 465 nM.

Regarding `Cc1nc2c(c(C(=O)NCC(F)(F)F)nn2C(C)c2ccc(C(F)(F)F)cc2)c(=O)[nH]1` (single isomer, unassigned) [Example 269, (S)- or (R)-6-Methyl-4-oxo-N-(2,2,2-trifluoroethyl)-1-(1-(4-(trifluoromethyl)phenyl)ethyl)-4,5-dihydro-1H-pyrazolo[3,4-d]pyrimidine-3-carboxamide], the Ki was about 1430 nM.

For the compound `CCc1nc2c(c(CO)nn2C(C)c2ccc(C(F)(F)F)cc2)c(=O)[nH]1` (single isomer, unassigned) [Example 302, (S)- or (R)-6-Ethyl-3-(hydroxymethyl)-1-{1-[4-(trifluoromethyl)phenyl]ethyl}-1,5-dihydro-4H-pyrazolo[3,4-d]pyrimidin-4-one], the Ki was 116 nM.

Take `Cc1nc2c(c(C(F)F)nn2C(c2ccc(C(F)(F)F)cc2)C(C)C)c(=O)[nH]1` (single isomer, unassigned) [Example 172, (S)- or (R)-3-(Difluoromethyl)-6-methyl-1-(2-methyl-1-(4-(trifluoromethyl)phenyl)propyl)-1H-pyrazolo[3,4-d] pyrimidin-4(5H)-one]: the Ki came to 0.31 nM.

For the compound `Cc1nc2c(c(CO)nn2C(C)c2ccc3c(c2)OC(F)(F)O3)c(=O)[nH]1` (single isomer, unassigned) [Example 114, (R)- or (S)-1-(1-(2,2-Difluorobenzo[d][1,3]dioxol-5-yl)ethyl)-3-(hydroxymethyl)-6-methyl-1H-pyrazolo[3,4-d]pyrimidin-4(5H)-one], the Ki stood at 1210 nM.

In the case of `Cc1nc2c(c(C(=O)NCC(F)(F)F)nn2C(C)c2ccc(C(F)(F)F)cc2)c(=O)[nH]1` (single isomer, unassigned) [Example 268, (R)- or (S)-6-Methyl-4-oxo-N-(2,2,2-trifluoroethyl)-1-(1-(4-(trifluoromethyl)phenyl)ethyl)-4,5-dihydro-1H-pyrazolo[3,4-d]pyrimidine-3-carboxamide], the Ki is 311 nM.

As for `CC(=O)c1ccc(C(C)n2nc(CO)c3c(=O)[nH]c(C)nc32)cc1` (single isomer, unassigned) [Example 290], the inhibition constant (Ki) is over 2960 nM.

As for `CCc1nc2c(c(CO)nn2C(C)c2ccc(C(F)(F)F)cc2)c(=O)[nH]1` (single isomer, unassigned) [Example 301, (R)- or (S)-6-Ethyl-3-(hydroxymethyl)-1-{1-[4-(trifluoromethyl)phenyl]ethyl}-1,5-dihydro-4H-pyrazolo[3,4-d]pyrimidin-4-one], the Ki came out at 4.7 nM.

Regarding `COCC(c1ccc(C(F)(F)F)cc1)n1nc(C(F)F)c2c(=O)[nH]c(C)nc21` (single isomer, unassigned) [Example 173, (R)- or (S)-3-(Difluoromethyl)-1-(2-methoxy-1-(4-(trifluoromethyl)phenyl)ethyl)-6-methyl-1H-pyrazolo[3,4-d]pyrimidin-4(5H)-one], the Ki is 4.6 nM.

For the compound `CC(=O)Nc1nn(C(C)c2ccc(C(F)(F)F)cc2)c2nc(C)[nH]c(=O)c12` (single isomer, unassigned) [Example 259], the Ki is about 2120 nM.

As to `CC(=O)c1nn([C@@H](C)c2ccc(C(F)(F)F)cc2)c2nc(C)[nH]c(=O)c12` [Example 322, (S)-3-Acetyl-6-methyl-1-(1-(4-(trifluoromethyl)phenyl)ethyl)-1,5-dihydro-4H-pyrazolo[3,4-d]pyrimidin-4-one], the Ki was found to be 42 nM.

For the compound `Cc1nc2c(c(CO)nn2C(C)c2ccc(C(C)(F)F)cc2)c(=O)[nH]1` (single isomer, unassigned) [Example 116, (R)- or (S)-1-(1-(4-(1,1-Difluoroethyl)phenyl)ethyl)-3-(hydroxymethyl)-6-methyl-1H-pyrazolo[3,4-d]pyrimidin-4(5H)-one], the Ki was found to be 392 nM.

With `Cc1nc2c(c(-c3ccco3)nn2C(C)c2ccc(C(F)(F)F)cc2)c(=O)[nH]1` (single isomer, unassigned) [Example 75, (S)- or (R)-3-(Furan-2-yl)-6-methyl-1-(1-(4-(trifluoromethyl)phenyl)ethyl)-1H-pyrazolo[3,4-d]pyrimidin-4(5H)-one], the Ki was determined as 203 nM.

Take `CC(C)Cc1nc2c(c(CO)nn2C(C)c2ccc(C(F)(F)F)cc2)c(=O)[nH]1` (single isomer, unassigned) [Example 306, (S)- or (R)-3-(Hydroxy-methyl)-6-isobutyl-1-(1-(4-(trifluoromethyl)phenyl)ethyl)-1,5-dihydro-4H-pyrazolo[3,4-d]pyrimidin-4-one]: the Ki was 568 nM.

On to `Cc1nc2c(c(CO)nn2C(c2ccc(C(F)(F)F)c(F)c2)C2(C)CC2)c(=O)[nH]1` (single isomer, unassigned) [Example 14, (R)- or (S)-1-((3-Fluoro-4-(trifluoromethyl)phenyl)(1-methylcyclopropyl)methyl)-3-(hydroxymethyl)-6-methyl-1H-pyrazolo[3,4-d]pyrimidin-4(5H)-one], for which the Ki was determined as 2.4 nM.

Turning to `Cc1nc2c(c(OCC(F)(F)F)nn2C(C)c2ccc(C(F)(F)F)cc2)c(=O)[nH]1` (single isomer, unassigned) [Example 287], the inhibition constant (Ki) was determined as 375 nM.

For the compound `Cc1nc2c(c(CO)nn2C(C)c2ccc(C(F)(F)F)c(C)c2)c(=O)[nH]1` (single isomer, unassigned) [Example 106, (R)- or (S)-3-(Hydroxymethyl)-6-methyl-1-(1-(3-methyl-4-(trifluoromethyl)phenyl)ethyl)-1H-pyrazolo[3,4-d]pyrimidin-4(5H)-one], the Ki worked out at 633 nM.

Turning to `Cc1nc2c(c(C(F)F)nn2C2(c3ccc(C(F)(F)F)cc3)COC2)c(=O)[nH]1` [Example 163, 3-(Difluoromethyl)-6-methyl-1-(3-(4-(trifluoromethyl)phenyl)oxetan-3-yl)-1H-pyrazolo[3,4-d]pyrimidin-4(5H)-one], the Ki was found to be 9.5 nM.

As for `Cc1nc2c(c(CO)nn2C(C)c2ccc(C(F)(F)F)c(C)c2)c(=O)[nH]1` (single isomer, unassigned) [Example 107, (S)- or (R)-3-(Hydroxymethyl)-6-methyl-1-(1-(3-methyl-4-(trifluoromethyl)phenyl)ethyl)-1H-pyrazolo[3,4-d]pyrimidin-4(5H)-one], the Ki was determined as 4.5 nM.

Turning to `Cc1nc2c(c(C(=O)N3CCOCC3)nn2C(C)c2ccc(C(F)(F)F)cc2)c(=O)[nH]1` (single isomer, unassigned) [Example 270, (R)- or (S)-6-Methyl-3-(morpholine-4-carbonyl)-1-(1-(4-(trifluoromethyl)phenyl)ethyl)-1H-pyrazolo[3,4-d]pyrimidin-4(5H)-one], the Ki was over 2960 nM.

As for `Cc1nc2c(c(CO)nn2C(C)c2ccc(C(F)(F)F)c(I)c2)c(=O)[nH]1` (single isomer, unassigned) [Example 139, (S)- or (R)-3-(Hydroxymethyl)-1-(1-(3-iodo-4-(trifluoromethyl-)phenyl)ethyl)-6-methyl-1,5-dihydro-4H-pyrazolo[3,4-d]pyrimidin-4-one], the Ki turned out to be 5.6 nM.

As for `Cc1nc2c(c(CO)nn2C(C)[C@H]2CC[C@H](C(F)(F)F)CC2)c(=O)[nH]1` (single isomer, unassigned) [Example 124, (R)- or (S)-3-(Hydroxymethyl)-6-methyl-1-((trans)-4-(trifluoromethyl)cyclohexyl) ethyl)-1H-pyrazolo[3,4-d]-pyrimidin-4(5H)-one], the Ki stood at 521 nM.

In the case of `Cc1nc2c(c(C(F)(F)F)nn2C(C)c2ccc(C(F)(F)F)cc2)c(=O)[nH]1` (single isomer, unassigned) [Example 68, (R)- or (S)-6-Methyl-3-(trifluoromethyl)-1-(1-(4-(trifluoromethyl)phenyl)ethyl)-1H-pyrazolo[3,4-d]pyrimidin-4(5H)-one], the Ki was found to be 8.6 nM.
